In patent publication US20120122860A1, “SOLID FORMS OF SULFONAMIDES AND AMINO ACIDS” (Plexxikon, Inc., priority 2009, published 2012):

How the values were obtained:
[1] = Polymorph stability of P-1167 forms 1 and 2; type: physicochemical; conditions: P-1167 form 1 versus form 2
Description: Propane-1-sulfonic acid {3-[5-(4-chloro-phenyl)-1H-pyrrolo[2,3-b]pyridine-3-carbonyl]-2,4-difluoro-phenyl}-amide (P-1167) may be prepared according to methods known in the art, for example, using methods described in U.S. patent application Ser. No. 11/473,347 (see also, PCT publication WO2007002433), the disclosure of which is hereby incorporated by reference. Compound P-1167 can exist in polymorphic forms, for example as polymorphic forms 1 or 2, where such polymorphic forms may be isolated as the substantially pure polymorph. The desired polymorphic form may be prepared, for example, by using appropriate crystallization conditions. For example, Form 1 was isolated by recrystallization from acetone/absolute ethanol (e.g. 1:1 to 5:1, preferably 2:1 by volume). […] The substantially pure isolated polymorphic forms were characterized by X-Ray Powder Diffraction (XRPD), differential scanning calorimetry (DSC) and infrared spectroscopy.

Kit = Kit (Homo sapiens, UniProt P10721); experiment: Kinase activity assay, Kit
PI3Kα = PI3Kα (Homo sapiens, UniProt P42336); experiment: Kinase activity assay, PI3Kα
B-Raf V600E = B-Raf V600E (Homo sapiens, UniProt P15056, V600E); experiment: Kinase activity assay, B-Raf V600E; type: biochemical; conditions: read-out: activity toward kinase B-Raf V600E, IC50
PI3Kδ = PI3Kδ (Homo sapiens, UniProt O00329); experiment: Kinase activity assay, PI3Kδ
Fms = Fms (Homo sapiens, UniProt P07333); experiment: Kinase activity assay, Fms
Src = Src (Homo sapiens, UniProt P12931); experiment: Kinase activity assay, Src
Kdr = Kdr (Homo sapiens, UniProt P35968); experiment: Kinase activity assay, Kdr
B-Raf = B-Raf (Homo sapiens, UniProt P15056); experiment: Kinase activity assay, B-Raf; type: biochemical; conditions: read-out: activity toward kinase B-Raf, IC50
PI3Kγ = PI3Kγ (Homo sapiens, UniProt P48736); experiment: Kinase activity assay, PI3Kγ
C-Raf = C-Raf (Homo sapiens, UniProt P04049); experiment: Kinase activity assay, C-Raf
A-Raf = molecular target: T1, A-Raf (Homo sapiens, UniProt P10398); experiment: Kinase activity assay, A-Raf
T1 sequence (P10398 1-606): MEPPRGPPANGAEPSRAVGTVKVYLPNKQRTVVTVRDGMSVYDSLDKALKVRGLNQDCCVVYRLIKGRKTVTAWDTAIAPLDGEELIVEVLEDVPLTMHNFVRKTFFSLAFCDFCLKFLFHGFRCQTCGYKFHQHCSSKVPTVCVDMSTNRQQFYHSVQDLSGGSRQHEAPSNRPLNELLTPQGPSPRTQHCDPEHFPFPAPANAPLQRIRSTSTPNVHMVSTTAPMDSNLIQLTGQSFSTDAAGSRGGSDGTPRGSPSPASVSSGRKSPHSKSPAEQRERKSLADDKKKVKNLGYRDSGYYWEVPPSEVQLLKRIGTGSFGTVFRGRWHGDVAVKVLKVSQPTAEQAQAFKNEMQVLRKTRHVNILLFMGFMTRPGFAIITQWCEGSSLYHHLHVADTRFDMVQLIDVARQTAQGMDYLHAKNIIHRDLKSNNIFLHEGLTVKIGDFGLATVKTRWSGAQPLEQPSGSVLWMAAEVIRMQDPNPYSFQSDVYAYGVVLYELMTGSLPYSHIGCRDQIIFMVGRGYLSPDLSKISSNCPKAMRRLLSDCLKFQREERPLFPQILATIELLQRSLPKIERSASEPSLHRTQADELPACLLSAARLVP

MAP4K4 = MAP4K4 (Homo sapiens, UniProt O95819); experiment: Kinase activity assay, MAP4K4
TrkA = TrkA (Homo sapiens, UniProt P04629); experiment: Kinase activity assay, TrkA
[2] = Intrinsic dissolution rate in simulated gastric fluid (SGF) without enzyme; type: physicochemical; conditions: pellet, 254 nm
Protocol: (§1) The intrinsic dissolution rate of a similarly prepared substantially amorphous arginine complex of P-1167 was compared to that of the form 2 polymorph in simulated gastric fluid (SGF) without enzyme and in simulated intestinal fluid (SIF). A pellet of test sample was dissolved in the appropriate fluid, and the UV absorbance as a function of time was measured at 254 nm (SGF) or 310 nm (SIF) and plotted. […] As such, significant improvement of dissolution of the arginine complex is shown, which is likely to be improved further by processing the complex to a completely amorphous form.

[3] = Intrinsic dissolution rate in simulated intestinal fluid (SIF); type: physicochemical; conditions: pellet, 310 nm, versus form 2 polymorph free base
Protocol: as §1

Sequence of Kdr (P35968 20-1356): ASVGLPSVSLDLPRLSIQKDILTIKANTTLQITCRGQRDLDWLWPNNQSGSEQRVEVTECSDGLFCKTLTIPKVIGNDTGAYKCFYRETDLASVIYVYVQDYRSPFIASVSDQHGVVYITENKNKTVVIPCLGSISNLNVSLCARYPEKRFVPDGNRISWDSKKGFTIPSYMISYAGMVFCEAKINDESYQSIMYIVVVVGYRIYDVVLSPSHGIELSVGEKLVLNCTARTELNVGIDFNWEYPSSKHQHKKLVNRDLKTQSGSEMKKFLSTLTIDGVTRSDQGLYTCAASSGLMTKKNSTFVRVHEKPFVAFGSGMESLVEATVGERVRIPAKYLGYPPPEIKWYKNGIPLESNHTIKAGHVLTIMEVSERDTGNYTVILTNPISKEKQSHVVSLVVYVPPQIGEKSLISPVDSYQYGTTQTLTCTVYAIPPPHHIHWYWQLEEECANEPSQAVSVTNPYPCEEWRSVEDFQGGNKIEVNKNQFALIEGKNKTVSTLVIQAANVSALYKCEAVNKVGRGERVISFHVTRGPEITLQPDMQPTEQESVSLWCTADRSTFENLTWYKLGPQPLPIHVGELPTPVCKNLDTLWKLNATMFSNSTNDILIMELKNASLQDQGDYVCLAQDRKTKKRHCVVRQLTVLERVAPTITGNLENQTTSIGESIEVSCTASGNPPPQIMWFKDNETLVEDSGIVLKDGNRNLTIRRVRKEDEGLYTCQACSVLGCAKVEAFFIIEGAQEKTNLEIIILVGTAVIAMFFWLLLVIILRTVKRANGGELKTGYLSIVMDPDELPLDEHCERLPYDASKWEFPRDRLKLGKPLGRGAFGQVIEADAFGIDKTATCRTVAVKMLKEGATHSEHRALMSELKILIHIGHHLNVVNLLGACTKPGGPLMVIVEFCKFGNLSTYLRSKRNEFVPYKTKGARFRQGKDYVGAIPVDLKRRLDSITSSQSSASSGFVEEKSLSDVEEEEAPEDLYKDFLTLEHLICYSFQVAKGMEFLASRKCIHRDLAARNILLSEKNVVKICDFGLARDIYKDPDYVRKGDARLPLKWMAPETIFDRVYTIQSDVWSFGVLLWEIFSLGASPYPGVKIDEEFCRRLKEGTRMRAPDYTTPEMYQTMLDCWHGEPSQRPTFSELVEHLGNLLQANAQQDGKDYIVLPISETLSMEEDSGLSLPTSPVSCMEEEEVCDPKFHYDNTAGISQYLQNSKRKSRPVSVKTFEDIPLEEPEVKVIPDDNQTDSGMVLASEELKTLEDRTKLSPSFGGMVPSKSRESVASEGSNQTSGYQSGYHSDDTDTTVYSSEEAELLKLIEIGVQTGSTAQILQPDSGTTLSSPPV
Sequence of PI3Kα (P42336 whole entry): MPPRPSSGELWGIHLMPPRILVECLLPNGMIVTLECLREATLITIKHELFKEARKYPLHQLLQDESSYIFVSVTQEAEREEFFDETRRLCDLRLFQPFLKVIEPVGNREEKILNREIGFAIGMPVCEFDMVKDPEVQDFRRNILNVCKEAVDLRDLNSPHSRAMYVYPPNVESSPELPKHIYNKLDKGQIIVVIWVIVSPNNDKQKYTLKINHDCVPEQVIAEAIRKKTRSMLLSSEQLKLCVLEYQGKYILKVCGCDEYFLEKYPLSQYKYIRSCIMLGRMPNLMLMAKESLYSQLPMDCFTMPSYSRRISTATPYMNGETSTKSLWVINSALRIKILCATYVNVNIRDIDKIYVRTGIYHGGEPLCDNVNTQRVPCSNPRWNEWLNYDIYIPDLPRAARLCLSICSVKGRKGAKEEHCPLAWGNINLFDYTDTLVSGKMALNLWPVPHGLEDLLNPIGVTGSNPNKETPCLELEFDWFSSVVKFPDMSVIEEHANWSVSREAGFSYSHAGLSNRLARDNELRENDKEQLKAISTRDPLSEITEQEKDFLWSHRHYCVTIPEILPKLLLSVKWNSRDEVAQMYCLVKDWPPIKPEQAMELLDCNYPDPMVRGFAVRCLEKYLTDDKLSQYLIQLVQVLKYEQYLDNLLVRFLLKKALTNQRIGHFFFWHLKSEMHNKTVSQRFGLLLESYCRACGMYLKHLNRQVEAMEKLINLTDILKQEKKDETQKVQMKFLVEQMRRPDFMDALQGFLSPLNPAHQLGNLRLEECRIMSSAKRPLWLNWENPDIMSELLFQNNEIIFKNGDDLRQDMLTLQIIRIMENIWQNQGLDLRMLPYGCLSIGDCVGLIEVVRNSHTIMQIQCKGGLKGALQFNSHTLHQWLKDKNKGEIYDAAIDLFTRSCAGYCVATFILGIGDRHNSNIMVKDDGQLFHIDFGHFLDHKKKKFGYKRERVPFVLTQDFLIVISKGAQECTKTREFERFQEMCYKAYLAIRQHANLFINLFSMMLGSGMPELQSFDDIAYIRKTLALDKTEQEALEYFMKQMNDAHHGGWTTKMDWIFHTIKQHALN
Sequence of PI3Kα (P27986 whole entry partner): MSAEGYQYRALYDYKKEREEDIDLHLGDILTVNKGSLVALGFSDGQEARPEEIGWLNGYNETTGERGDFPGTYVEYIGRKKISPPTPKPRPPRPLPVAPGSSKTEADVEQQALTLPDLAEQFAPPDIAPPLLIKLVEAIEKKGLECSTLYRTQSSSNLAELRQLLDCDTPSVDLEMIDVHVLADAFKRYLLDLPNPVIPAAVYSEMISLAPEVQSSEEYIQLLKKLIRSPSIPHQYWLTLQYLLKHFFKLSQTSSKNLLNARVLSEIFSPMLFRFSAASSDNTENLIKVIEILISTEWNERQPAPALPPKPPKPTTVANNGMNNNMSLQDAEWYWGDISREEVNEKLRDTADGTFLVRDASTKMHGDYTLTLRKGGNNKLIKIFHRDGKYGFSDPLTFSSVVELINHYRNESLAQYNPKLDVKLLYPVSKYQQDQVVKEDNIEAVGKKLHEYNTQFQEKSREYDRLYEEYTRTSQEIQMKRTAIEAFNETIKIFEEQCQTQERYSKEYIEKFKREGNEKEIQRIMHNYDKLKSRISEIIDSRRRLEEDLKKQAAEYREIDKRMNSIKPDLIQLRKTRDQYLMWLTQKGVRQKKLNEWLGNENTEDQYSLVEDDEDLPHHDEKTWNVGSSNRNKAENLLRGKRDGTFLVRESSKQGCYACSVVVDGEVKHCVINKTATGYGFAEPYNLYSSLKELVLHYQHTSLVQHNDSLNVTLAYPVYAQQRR
Sequence of B-Raf (P15056 whole entry): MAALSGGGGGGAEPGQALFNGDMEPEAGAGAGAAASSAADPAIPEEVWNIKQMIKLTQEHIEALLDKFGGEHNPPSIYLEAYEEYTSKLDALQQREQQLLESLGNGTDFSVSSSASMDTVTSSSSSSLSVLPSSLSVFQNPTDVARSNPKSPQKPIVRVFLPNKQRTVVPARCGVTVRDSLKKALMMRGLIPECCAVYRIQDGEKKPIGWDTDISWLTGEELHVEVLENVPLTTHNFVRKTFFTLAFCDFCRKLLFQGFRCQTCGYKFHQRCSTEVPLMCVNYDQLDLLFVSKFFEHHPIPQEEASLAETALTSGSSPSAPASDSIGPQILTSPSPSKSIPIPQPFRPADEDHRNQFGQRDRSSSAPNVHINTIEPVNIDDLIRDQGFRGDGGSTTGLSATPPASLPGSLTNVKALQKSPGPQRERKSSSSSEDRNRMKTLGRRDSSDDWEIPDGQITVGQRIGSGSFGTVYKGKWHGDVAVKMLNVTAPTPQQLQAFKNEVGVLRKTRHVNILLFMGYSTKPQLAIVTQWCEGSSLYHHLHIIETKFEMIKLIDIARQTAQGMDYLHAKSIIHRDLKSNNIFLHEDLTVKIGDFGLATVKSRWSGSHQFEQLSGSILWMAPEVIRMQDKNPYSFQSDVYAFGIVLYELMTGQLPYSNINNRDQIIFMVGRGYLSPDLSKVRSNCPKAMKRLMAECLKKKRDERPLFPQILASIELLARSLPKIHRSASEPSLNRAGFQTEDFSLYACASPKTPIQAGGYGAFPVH
Sequence of B-Raf V600E (P15056 whole entry V600E): as the sequence (P15056 whole entry) above, with V600E counted along it
Sequence of PI3Kγ (P48736 whole entry): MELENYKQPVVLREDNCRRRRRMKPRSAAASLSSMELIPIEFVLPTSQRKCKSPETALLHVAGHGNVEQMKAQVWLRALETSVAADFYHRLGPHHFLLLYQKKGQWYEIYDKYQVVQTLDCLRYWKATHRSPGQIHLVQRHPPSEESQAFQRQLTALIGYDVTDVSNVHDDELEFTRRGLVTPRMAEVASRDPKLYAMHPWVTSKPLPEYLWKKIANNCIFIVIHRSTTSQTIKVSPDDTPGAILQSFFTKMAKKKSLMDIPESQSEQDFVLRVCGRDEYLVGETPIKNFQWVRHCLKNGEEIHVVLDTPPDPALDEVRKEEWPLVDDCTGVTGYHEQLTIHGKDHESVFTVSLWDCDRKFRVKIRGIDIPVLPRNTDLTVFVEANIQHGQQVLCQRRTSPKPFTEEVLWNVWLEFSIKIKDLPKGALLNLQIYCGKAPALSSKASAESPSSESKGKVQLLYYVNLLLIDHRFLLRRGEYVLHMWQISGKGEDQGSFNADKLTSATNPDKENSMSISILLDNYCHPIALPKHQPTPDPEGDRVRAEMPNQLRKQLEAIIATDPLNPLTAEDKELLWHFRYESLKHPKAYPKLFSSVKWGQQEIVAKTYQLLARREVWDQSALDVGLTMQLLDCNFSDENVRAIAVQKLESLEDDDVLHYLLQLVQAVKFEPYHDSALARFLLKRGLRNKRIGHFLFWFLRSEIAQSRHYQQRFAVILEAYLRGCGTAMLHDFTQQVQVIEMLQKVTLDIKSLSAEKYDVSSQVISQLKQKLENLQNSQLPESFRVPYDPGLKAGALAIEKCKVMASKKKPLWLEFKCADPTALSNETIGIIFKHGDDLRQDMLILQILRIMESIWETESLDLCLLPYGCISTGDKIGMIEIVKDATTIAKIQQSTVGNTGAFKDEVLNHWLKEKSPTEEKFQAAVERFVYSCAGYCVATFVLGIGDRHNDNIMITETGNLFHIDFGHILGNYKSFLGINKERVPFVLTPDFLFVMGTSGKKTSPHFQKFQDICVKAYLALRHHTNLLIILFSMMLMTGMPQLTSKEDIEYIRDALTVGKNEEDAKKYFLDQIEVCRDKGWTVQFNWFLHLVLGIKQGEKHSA

Row | Compound | IC50 (Kit) [µM] | IC50 (PI3Kα) [µM] | IC50 (B-Raf V600E) [µM] | IC50 (PI3Kδ) [µM] | IC50 (Src) [µM] | IC50 (Kdr) [µM] | IC50 (B-Raf) [µM] | IC50 (PI3Kγ) [µM] | IC50 (C-Raf) [µM] | IC50 (A-Raf) [µM] | IC50 (MAP4K4) [µM] | further results
1 | CCCS(=O)(=O)Nc1ccc(F)c(C(=O)c2c[nH]c3ncc(-c4ccc(Cl)cc4)cc23)c1F [P-1167 Form 2, Propane-1-sulfonic acid {3-[5-(4-chloro-phenyl)-1H-pyrrolo[2,3-b]pyridine-3-carbonyl]-2,4-difluoro-phenyl}-amide] |  |  |  |  |  |  |  |  |  |  |  | relative stability of polymorphic forms [1]: more stable polymorph
2 | CCCS(=O)(=O)Nc1ccc(F)c(C(=O)c2c[nH]c3ncc(-c4cccc(S(=O)(=O)NC)c4)cc23)c1F [P-2170, 3-{3-[2,6-Difluoro-3-(propane-1-sulfonylamino)-benzoyl]-1H-pyrrolo[2,3-b]pyridin-5-yl}-N-methyl-benzenesulfonamide] | ≤ 10 | ≤ 10 | ≤ 10 | ≤ 10 | ≤ 10 | ≤ 10 |  |  |  |  |  | IC50 (Fms): ≤ 10 µM
3 | CCCS(=O)(=O)Nc1ccc(F)c(C(=O)c2c[nH]c3ncc(-c4cncc(S(C)(=O)=O)c4)cc23)c1F [P-2188] |  | ≤ 10 | ≤ 10 | ≤ 10 |  | ≤ 10 | ≤ 10 | ≤ 10 |  |  |  | 
4 | CCCS(=O)(=O)Nc1ccc(F)c(C(=O)c2c[nH]c3ncc(-c4ccc(C(N)=O)nc4)cc23)c1F [P-2220, 5-{3-[2,6-Difluoro-3-(propane-1-sulfonylamino)-benzoyl]-1H-pyrrolo[2,3-b]pyridin-5-yl}-pyridine-2-carboxylic acid amide] | ≤ 10 | ≤ 10 | ≤ 10 |  | ≤ 10 | ≤ 10 | ≤ 10 | ≤ 10 | ≤ 10 | ≤ 10 | ≤ 10 | 
5 | CCCS(=O)(=O)Nc1cccc(C(=O)c2c[nH]c3ncc(-c4cnc(OC)nc4)cc23)c1F [P-2407, Propane-1-sulfonic acid {2-fluoro-3-[5-(2-methoxy-pyrimidin-5-yl)-1H-pyrrolo[2,3-b]pyridine-3-carbonyl]-phenyl}-amide] |  | ≤ 10 | ≤ 10 |  |  |  | ≤ 10 | ≤ 10 | ≤ 10 | ≤ 10 | ≤ 10 | IC50 (TrkA): ≤ 10 µM
6 | CCCS(=O)(=O)Nc1ccc(F)c(C(=O)c2c[nH]c3ncc(-c4ccc(Cl)cc4)cc23)c1F [arginine complex of P-1167, propane-1-sulfonic acid {3-[5-(4-chloro-phenyl)-1H-pyrrolo[2,3-b]pyridine-3-carbonyl]-2,4-difluoro-phenyl}-amide] |  |  |  |  |  |  |  |  |  |  |  | time of maximum absorbance in SGF [2]: approximately 200 minutes; maximum UV absorbance in SGF (dissolution) ([2]; versus form 2 polymorph free base): substantially greater than the free base; UV absorbance in SIF (dissolution) [3]: substantially higher absorbance in SIF than the free base
